Assay [1] relates to Blumeria graminis f. sp. hordei. Kind of assay: Test Example D: Powdery mildew on barley. To be noted: Powdery mildew on barley; control value class.
Procedure: Seeds of a test plant (barley variety: Akashinriki) were planted and cultivated until the first leaves appeared. In the test, the inventive compounds were dissolved into dimethyl sulfoxide-methanol mixture solution (volume ratio: 9/1), and the resultant solutions were diluted with well water to a concentration of 250 ppm to obtain the drug solutions. The drug solutions were sprayed to the test plant (2.5 ml/pot). After the drug solutions dried, conidia of Blumeria graminis f. sp. hordei were inoculated to the plant by shaking off. The degrees of disease development were investigated 6 to 10 days after the inoculation, and the effectiveness of the drug solutions was evaluated.
In Test Examples described above, the degrees of disease development were evaluated in increments of 0.05 from 0 (as no incidence of disease) to 3 (as the degree of disease development in an untreated plant group). Further, control values were calculated using the following equation based on the degree of disease development.
n=Degree of disease development in each treated group
The test system of another assay is Botrytis cinerea. Kind of assay: Test Example B: Gray mold on tomato. To be noted: Gray mold on tomato; control value class.
For the next assay, the system named is Plasmopara viticola. Kind of assay: Test Example G: Downy mildew on vine. The following applies: Downy mildew on vine; 250 ppm spray, 7 to 10 days after inoculation.
Assay [2] has as its system Colletotrichum orbiculare. The assay is described as follows: Test Example H: Anthracnose on cucumber. To be noted: Anthracnose on cucumber; 250 ppm spray, 6 to 10 days after inoculation.
The subject of another assay is Magnaporthe grisea. The assay is described as follows: whole plant or invertebrate. The assay is classed as in vivo. To be noted: Blast on rice; control value class.
A further assay deals with Phytophthora infestans. Kind of assay: whole plant or invertebrate. Type of assay: in vivo. To be noted: Late blight on tomato; control value class.
A further assay concerns Alternaia brassicicola. The assay is described as follows: Test Example C: Alternaria sooty spot on cabbage. Type of assay: in vivo. The following applies: Alternaria sooty spot on cabbage; control value class. The source says: Seeds of a test plant (cabbage variety: Shikidori) were planted and cultivated until the cotyledons extended.
<Control Value> Control value=100{1−(n/3)}

The test system of the next assay is Puccinia recondita. Kind of assay: Test Example E: Brown rust on wheat. Type of assay: in vivo. To be noted: Brown rust on wheat; control value class.

Each structure is given as a SMILES string.

In the case of `CCn1c(-c2ccc(F)cc2Br)c(CC(C)C)ccc1=O` [compound 199], the “Test D control value” in assay [1] is reported as “H (more than 50% control value)”. Moreover, the “Test B control value” in the assay with Botrytis cinerea is “H (more than 50% control value)”. Besides, the “Test G control value” in the assay with Plasmopara viticola is “H (more than 50% control value)”. The “Test H control value” in assay [2] was “H (more than 50% control value)”. For the same molecule, the “Test A control value” in the assay with Magnaporthe grisea is listed as “H (more than 50% control value)”. Besides, in the assay on Phytophthora infestans, the “Test F control value” is listed as “H (more than 50% control value)”. Moreover, in the assay with Alternaia brassicicola, the “Test C control value” is “H (more than 50% control value)”. Further, the “Test E control value” with Puccinia recondita was “H (more than 50% control value)”.

Consider `CCn1c(-c2ccc(F)cc2Br)c(CC(C)C)cc(Cl)c1=O` [compound 200], for which the “Test D control value” in assay [1] was “H (more than 50% control value)”. The “Test B control value” in the assay with Botrytis cinerea was “H (more than 50% control value)”. Also, the “Test G control value” with Plasmopara viticola was “H (more than 50% control value)”. The “Test H control value” in assay [2] was “H (more than 50% control value)”. Moreover, in the assay with Magnaporthe grisea, the “Test A control value” is on record as “H (more than 50% control value)”. The “Test F control value” in the assay with Phytophthora infestans was “H (more than 50% control value)”. Moreover, the “Test C control value” in the assay with Alternaia brassicicola is “H (more than 50% control value)”. Further, the “Test E control value” with Puccinia recondita was “H (more than 50% control value)”.

`CCn1c(-c2ccc(F)cc2Br)c(CC(C)C)cc(Br)c1=O` [compound 201]: in assay [1], the “Test D control value” is reported as “H (more than 50% control value)”. Also, the “Test B control value” in the assay on Botrytis cinerea was “H (more than 50% control value)”. The “Test G control value” in the assay on Plasmopara viticola is “H (more than 50% control value)”. In assay [2], the “Test H control value” is “H (more than 50% control value)”. In the assay on Magnaporthe grisea, the “Test A control value” is recorded as “H (more than 50% control value)”. Further, the “Test F control value” in the assay with Phytophthora infestans was “L (50% or less control value)”. In the assay on Alternaia brassicicola, the “Test C control value” is on record as “H (more than 50% control value)”. In addition, the “Test E control value” in the assay on Puccinia recondita is “H (more than 50% control value)”.

Regarding `CCn1c(-c2ccc(F)cc2C)c(CC(C)C)ccc1=O` [compound 202], the “Test D control value” in assay [1] is listed as “H (more than 50% control value)”. The “Test B control value” in the assay on Botrytis cinerea was “H (more than 50% control value)”. In addition, the “Test G control value” with Plasmopara viticola is recorded as “H (more than 50% control value)”. Besides, the “Test H control value” in assay [2] was “L (50% or less control value)”. Besides, the “Test A control value” in the assay on Magnaporthe grisea is “H (more than 50% control value)”. The “Test F control value” in the assay on Phytophthora infestans was “L (50% or less control value)”. For the same molecule, the “Test C control value” with Alternaia brassicicola is reported as “L (50% or less control value)”. In addition, in the assay with Puccinia recondita, the “Test E control value” was “H (more than 50% control value)”.

Turning to `CCn1c(-c2ccc(F)cc2C)c(CC(C)C)cc(Cl)c1=O` [compound 203], the “Test D control value” in assay [1] is “H (more than 50% control value)”. The “Test B control value” in the assay with Botrytis cinerea is given as “H (more than 50% control value)”. The “Test G control value” in the assay with Plasmopara viticola was “H (more than 50% control value)”. In addition, the “Test H control value” in assay [2] is given as “H (more than 50% control value)”. Further, the “Test A control value” in the assay with Magnaporthe grisea is “H (more than 50% control value)”. Besides, in the assay on Phytophthora infestans, the “Test F control value” is “H (more than 50% control value)”. Moreover, in the assay with Alternaia brassicicola, the “Test C control value” is “H (more than 50% control value)”. In addition, the “Test E control value” with Puccinia recondita was “H (more than 50% control value)”.

Turning to `CCn1c(-c2ccc(F)cc2C)c(CC(C)C)cc(Br)c1=O` [compound 204], the “Test D control value” in assay [1] is reported as “H (more than 50% control value)”. In the assay with Botrytis cinerea, the “Test B control value” was “H (more than 50% control value)”. Moreover, the “Test G control value” with Plasmopara viticola is “H (more than 50% control value)”. In assay [2], the “Test H control value” is reported as “H (more than 50% control value)”. In addition, in the assay with Magnaporthe grisea, the “Test A control value” is given as “H (more than 50% control value)”. For the same molecule, the “Test F control value” in the assay on Phytophthora infestans is listed as “L (50% or less control value)”. Also, the “Test C control value” with Alternaia brassicicola was “H (more than 50% control value)”. Further, the “Test E control value” with Puccinia recondita is recorded as “H (more than 50% control value)”.

With `CCCCc1ccc(=O)n(CC)c1-c1ccc(F)cc1Cl` [compound 205], the “Test D control value” in assay [1] is reported as “H (more than 50% control value)”. For the same molecule, the “Test B control value” in the assay with Botrytis cinerea was “H (more than 50% control value)”. In the assay with Plasmopara viticola, the “Test G control value” was “H (more than 50% control value)”. Moreover, the “Test H control value” in assay [2] is reported as “L (50% or less control value)”. In the assay with Magnaporthe grisea, the “Test A control value” is reported as “H (more than 50% control value)”. For the same molecule, the “Test F control value” with Phytophthora infestans was “L (50% or less control value)”. In the assay with Alternaia brassicicola, the “Test C control value” is “H (more than 50% control value)”. The “Test E control value” in the assay on Puccinia recondita was “H (more than 50% control value)”.

As to `CCCCc1cc(Cl)c(=O)n(CC)c1-c1ccc(F)cc1Cl` [compound 206], the “Test D control value” in assay [1] was “H (more than 50% control value)”. The “Test B control value” with Botrytis cinerea is listed as “H (more than 50% control value)”. Besides, in the assay with Plasmopara viticola, the “Test G control value” was “H (more than 50% control value)”. The “Test H control value” in assay [2] is given as “H (more than 50% control value)”. In the assay with Magnaporthe grisea, the “Test A control value” was “H (more than 50% control value)”. Further, the “Test F control value” with Phytophthora infestans was “H (more than 50% control value)”. For the same molecule, the “Test C control value” in the assay on Alternaia brassicicola is on record as “H (more than 50% control value)”. In addition, in the assay with Puccinia recondita, the “Test E control value” is on record as “H (more than 50% control value)”.

In the case of `CCCCc1cc(Br)c(=O)n(CC)c1-c1ccc(F)cc1Cl` [compound 207], in assay [1], the “Test D control value” is given as “H (more than 50% control value)”. The “Test B control value” in the assay with Botrytis cinerea is “H (more than 50% control value)”. Further, in the assay with Plasmopara viticola, the “Test G control value” is recorded as “H (more than 50% control value)”. The “Test H control value” in assay [2] is listed as “H (more than 50% control value)”. Besides, the “Test A control value” in the assay on Magnaporthe grisea is on record as “H (more than 50% control value)”. Further, the “Test F control value” in the assay with Phytophthora infestans was “L (50% or less control value)”. The “Test C control value” in the assay with Alternaia brassicicola is given as “H (more than 50% control value)”. For the same molecule, the “Test E control value” with Puccinia recondita is “H (more than 50% control value)”.

As to `CCCCc1ccc(=O)n(CC)c1-c1ccc(F)cc1Cl` [compound 208], the “Test D control value” in assay [1] is “H (more than 50% control value)”. For the same molecule, the “Test B control value” in the assay with Botrytis cinerea is given as “H (more than 50% control value)”. Besides, the “Test G control value” in the assay with Plasmopara viticola is recorded as “L (50% or less control value)”. Further, the “Test H control value” in assay [2] is “L (50% or less control value)”. Also, in the assay with Magnaporthe grisea, the “Test A control value” is given as “H (more than 50% control value)”. Besides, in the assay with Phytophthora infestans, the “Test F control value” was “L (50% or less control value)”. The “Test C control value” in the assay with Alternaia brassicicola is given as “H (more than 50% control value)”. The “Test E control value” with Puccinia recondita is listed as “H (more than 50% control value)”.

Consider `CCCCCc1cc(Cl)c(=O)n(CC)c1-c1ccc(F)cc1Cl` [compound 209], for which, in assay [1], the “Test D control value” is recorded as “H (more than 50% control value)”. In addition, in the assay on Botrytis cinerea, the “Test B control value” is given as “H (more than 50% control value)”. Moreover, the “Test G control value” with Plasmopara viticola was “H (more than 50% control value)”. Further, the “Test H control value” in assay [2] is recorded as “H (more than 50% control value)”. For the same molecule, the “Test A control value” in the assay on Magnaporthe grisea was “H (more than 50% control value)”. In the assay on Phytophthora infestans, the “Test F control value” was “L (50% or less control value)”. Moreover, in the assay on Alternaia brassicicola, the “Test C control value” was “H (more than 50% control value)”. In addition, the “Test E control value” in the assay with Puccinia recondita was “H (more than 50% control value)”.
